Values after ≈ are worked out from the molar mass of the structure shown.
How the values were obtained:
Format in all cases: functional
Penicillium [1] = assay: Antimicrobial activity against Penicillium wild strain assessed as diameter of growth inhibition zone at 250 ug/ml after 48-96 hr by agar cup diffusion method; settings: read-out: DIZ
Penicillium [2] = assay: Antimicrobial activity against Penicillium wild strain assessed as diameter of growth inhibition zone at 100 ug/ml after 48-96 hr by agar cup diffusion method; settings: read-out: DIZ
Trichophyton rubrum [3] = assay: Antimicrobial activity against Trichophyton rubrum MTCC 296 assessed as diameter of growth inhibition zone at 100 ug/ml after 48-96 hr by agar cup diffusion method; settings: read-out: DIZ
Aspergillus clavatus [4] = assay: Antimicrobial activity against Aspergillus clavatus MTCC 1323 assessed as diameter of growth inhibition zone at 100 ug/ml after 48-96 hr by agar cup diffusion method; settings: read-out: DIZ
Candida albicans [5] = assay: Antimicrobial activity against Candida albicans MTCC 227 assessed as diameter of growth inhibition zone at 100 ug/ml after 48-96 hr by agar cup diffusion method; settings: read-out: DIZ
Penicillium [6] = assay: Antimicrobial activity against Penicillium wild strain assessed as diameter of growth inhibition zone at 50 ug/ml after 48-96 hr by agar cup diffusion method; settings: read-out: DIZ
Trichophyton rubrum [7] = assay: Antimicrobial activity against Trichophyton rubrum MTCC 296 assessed as diameter of growth inhibition zone at 50 ug/ml after 48-96 hr by agar cup diffusion method; settings: read-out: DIZ
Aspergillus clavatus [8] = assay: Antimicrobial activity against Aspergillus clavatus MTCC 1323 assessed as diameter of growth inhibition zone at 50 ug/ml after 48-96 hr by agar cup diffusion method; settings: read-out: DIZ
Candida albicans [9] = assay: Antimicrobial activity against Candida albicans MTCC 227 assessed as diameter of growth inhibition zone at 50 ug/ml after 48-96 hr by agar cup diffusion method; settings: read-out: DIZ
Penicillium [10] = assay: Antimicrobial activity against Penicillium wild strain assessed as diameter of growth inhibition zone at 25 ug/ml after 48-96 hr by agar cup diffusion method; settings: read-out: DIZ
Trichophyton rubrum [11] = assay: Antimicrobial activity against Trichophyton rubrum MTCC 296 assessed as diameter of growth inhibition zone at 25 ug/ml after 48-96 hr by agar cup diffusion method; settings: read-out: DIZ
Aspergillus clavatus [12] = assay: Antimicrobial activity against Aspergillus clavatus MTCC 1323 assessed as diameter of growth inhibition zone at 25 ug/ml after 48-96 hr by agar cup diffusion method; settings: read-out: DIZ
Candida albicans [13] = assay: Antimicrobial activity against Candida albicans MTCC 227 assessed as diameter of growth inhibition zone at 25 ug/ml after 48-96 hr by agar cup diffusion method; settings: read-out: DIZ
Penicillium [14] = assay: Antimicrobial activity against Penicillium wild strain by agar cup diffusion method
Aspergillus clavatus [15] = assay: Antimicrobial activity against Aspergillus clavatus MTCC 1323 by agar cup diffusion method
Pseudomonas aeruginosa [16] = assay: Antimicrobial activity against Pseudomonas aeruginosa MTCC 1688 assessed as diameter of growth inhibition zone at 25 ug/ml after 18-24 hr by agar cup diffusion method; settings: read-out: DIZ
Escherichia coli [17] = assay: Antimicrobial activity against Escherichia coli MTCC 443 assessed as diameter of growth inhibition zone at 25 ug/ml after 18-24 hr by agar cup diffusion method; settings: read-out: DIZ
Staphylococcus aureus [18] = assay: Antimicrobial activity against Staphylococcus aureus MTCC 96 assessed as diameter of growth inhibition zone at 25 ug/ml after 18-24 hr by agar cup diffusion method; settings: read-out: DIZ
Streptococcus pyogenes [19] = assay: Antimicrobial activity against Streptococcus pyogenes MTCC 442 assessed as diameter of growth inhibition zone at 25 ug/ml after 18-24 hr by agar cup diffusion method; settings: read-out: DIZ
Klebsiella pneumoniae [20] = assay: Antimicrobial activity against Klebsiella pneumoniae MTCC 109 by agar cup diffusion method
Escherichia coli [21] = assay: Antimicrobial activity against Escherichia coli MTCC 443 by agar cup diffusion method
Pseudomonas aeruginosa [22] = assay: Antimicrobial activity against Pseudomonas aeruginosa MTCC 1688 by agar cup diffusion method
Staphylococcus aureus [23] = assay: Antimicrobial activity against Staphylococcus aureus MTCC 96 by agar cup diffusion method
Streptococcus pyogenes [24] = assay: Antimicrobial activity against Streptococcus pyogenes MTCC 442 by agar cup diffusion method
Trichophyton rubrum [25] = assay: Antimicrobial activity against Trichophyton rubrum MTCC 296 by agar cup diffusion method
Candida albicans [26] = assay: Antimicrobial activity against Candida albicans MTCC 227 by agar cup diffusion method
Klebsiella pneumoniae [27] = assay: Antimicrobial activity against Klebsiella pneumoniae MTCC 109 assessed as diameter of growth inhibition zone at 250 ug/ml after 18-24 hr by agar cup diffusion method; settings: read-out: DIZ
Pseudomonas aeruginosa [28] = assay: Antimicrobial activity against Pseudomonas aeruginosa MTCC 1688 assessed as diameter of growth inhibition zone at 250 ug/ml after 18-24 hr by agar cup diffusion method; settings: read-out: DIZ
Escherichia coli [29] = assay: Antimicrobial activity against Escherichia coli MTCC 443 assessed as diameter of growth inhibition zone at 250 ug/ml after 18-24 hr by agar cup diffusion method; settings: read-out: DIZ
Staphylococcus aureus [30] = assay: Antimicrobial activity against Staphylococcus aureus MTCC 96 assessed as diameter of growth inhibition zone at 250 ug/ml after 18-24 hr by agar cup diffusion method; settings: read-out: DIZ
Streptococcus pyogenes [31] = assay: Antimicrobial activity against Streptococcus pyogenes MTCC 442 assessed as diameter of growth inhibition zone at 250 ug/ml after 18-24 hr by agar cup diffusion method; settings: read-out: DIZ
Klebsiella pneumoniae [32] = assay: Antimicrobial activity against Klebsiella pneumoniae MTCC 109 assessed as diameter of growth inhibition zone at 100 ug/ml after 18-24 hr by agar cup diffusion method; settings: read-out: DIZ
Pseudomonas aeruginosa [33] = assay: Antimicrobial activity against Pseudomonas aeruginosa MTCC 1688 assessed as diameter of growth inhibition zone at 100 ug/ml after 18-24 hr by agar cup diffusion method; settings: read-out: DIZ
Escherichia coli [34] = assay: Antimicrobial activity against Escherichia coli MTCC 443 assessed as diameter of growth inhibition zone at 100 ug/ml after 18-24 hr by agar cup diffusion method; settings: read-out: DIZ
Staphylococcus aureus [35] = assay: Antimicrobial activity against Staphylococcus aureus MTCC 96 assessed as diameter of growth inhibition zone at 100 ug/ml after 18-24 hr by agar cup diffusion method; settings: read-out: DIZ
Streptococcus pyogenes [36] = assay: Antimicrobial activity against Streptococcus pyogenes MTCC 442 assessed as diameter of growth inhibition zone at 100 ug/ml after 18-24 hr by agar cup diffusion method; settings: read-out: DIZ
Klebsiella pneumoniae [37] = assay: Antimicrobial activity against Klebsiella pneumoniae MTCC 109 assessed as diameter of growth inhibition zone at 50 ug/ml after 18-24 hr by agar cup diffusion method; settings: read-out: DIZ
Pseudomonas aeruginosa [38] = assay: Antimicrobial activity against Pseudomonas aeruginosa MTCC 1688 assessed as diameter of growth inhibition zone at 50 ug/ml after 18-24 hr by agar cup diffusion method; settings: read-out: DIZ
Escherichia coli [39] = assay: Antimicrobial activity against Escherichia coli MTCC 443 assessed as diameter of growth inhibition zone at 50 ug/ml after 18-24 hr by agar cup diffusion method; settings: read-out: DIZ
Staphylococcus aureus [40] = assay: Antimicrobial activity against Staphylococcus aureus MTCC 96 assessed as diameter of growth inhibition zone at 50 ug/ml after 18-24 hr by agar cup diffusion method; settings: read-out: DIZ
Streptococcus pyogenes [41] = assay: Antimicrobial activity against Streptococcus pyogenes MTCC 442 assessed as diameter of growth inhibition zone at 50 ug/ml after 18-24 hr by agar cup diffusion method; settings: read-out: DIZ
Klebsiella pneumoniae [42] = assay: Antimicrobial activity against Klebsiella pneumoniae MTCC 109 assessed as diameter of growth inhibition zone at 25 ug/ml after 18-24 hr by agar cup diffusion method; settings: read-out: DIZ
Trichophyton rubrum [43] = assay: Antimicrobial activity against Trichophyton rubrum MTCC 296 assessed as diameter of growth inhibition zone at 250 ug/ml after 48-96 hr by agar cup diffusion method; settings: read-out: DIZ
Aspergillus clavatus [44] = assay: Antimicrobial activity against Aspergillus clavatus MTCC 1323 assessed as diameter of growth inhibition zone at 250 ug/ml after 48-96 hr by agar cup diffusion method; settings: read-out: DIZ
Candida albicans [45] = assay: Antimicrobial activity against Candida albicans MTCC 227 assessed as diameter of growth inhibition zone at 250 ug/ml after 48-96 hr by agar cup diffusion method; settings: read-out: DIZ

In the case of `Cc1ccc(/C=C/C(=O)C2C(=O)NC(=S)NC2=O)cc1`, the zone of inhibition at 250 µg/mL (Penicillium [1]) is reported as 22 mm, the zone of inhibition at 100 µg/mL (Penicillium [2]) is reported as 19 mm and the zone of inhibition at 100 µg/mL (Trichophyton rubrum [3]) is reported as 22 mm. It also gave a zone of inhibition at 100 µg/mL (Aspergillus clavatus [4]) of 22 mm, a zone of inhibition at 100 µg/mL (Candida albicans [5]) of 21 mm and a zone of inhibition at 50 µg/mL (Penicillium [6]) of 18 mm. For the same compound, the zone of inhibition at 50 µg/mL (Trichophyton rubrum [7]) was 20 mm, the zone of inhibition at 50 µg/mL (Aspergillus clavatus [8]) was 22 mm and the zone of inhibition at 50 µg/mL (Candida albicans [9]) was 20 mm. The zone of inhibition at 25 µg/mL (Penicillium [10]) was 18 mm, the zone of inhibition at 25 µg/mL (Trichophyton rubrum [11]) was 19 mm and the zone of inhibition at 25 µg/mL (Aspergillus clavatus [12]) was 21 mm. The zone of inhibition at 25 µg/mL (Candida albicans [13]) was 19 mm, the MFC (Penicillium [14]) was > 1000 µg/mL and the MIC (Penicillium [14]) was > 1000 µg/mL. The MFC (Aspergillus clavatus [15]) was > 1000 µg/mL, the MIC (Aspergillus clavatus [15]) was > 1000 µg/mL and the zone of inhibition at 25 µg/mL (Pseudomonas aeruginosa [16]) was 10 mm. The zone of inhibition at 25 µg/mL (Escherichia coli [17]) was 15 mm, the zone of inhibition at 25 µg/mL (Staphylococcus aureus [18]) was 10 mm and the zone of inhibition at 25 µg/mL (Streptococcus pyogenes [19]) was 15 mm. The MBC (Klebsiella pneumoniae [20]) was 100 µg/mL (≈ 347 µM), the MIC (Klebsiella pneumoniae [20]) was 100 µg/mL (≈ 347 µM) and the MBC (Escherichia coli [21]) was 200 µg/mL (≈ 694 µM). It also gave an MIC (Escherichia coli [21]) of 100 µg/mL (≈ 347 µM), an MBC (Pseudomonas aeruginosa [22]) of 500 µg/mL (≈ 1730 µM) and an MIC (Pseudomonas aeruginosa [22]) of 250 µg/mL (≈ 867 µM). For the same compound, the MBC (Staphylococcus aureus [23]) was 125 µg/mL (≈ 434 µM), the MIC (Staphylococcus aureus [23]) was 125 µg/mL (≈ 434 µM) and the MBC (Streptococcus pyogenes [24]) was 200 µg/mL (≈ 694 µM). The MIC (Streptococcus pyogenes [24]) was 250 µg/mL (≈ 867 µM), the MFC (Trichophyton rubrum [25]) was > 1000 µg/mL and the MIC (Trichophyton rubrum [25]) was > 1000 µg/mL. The MFC (Candida albicans [26]) was > 1000 µg/mL, the MIC (Candida albicans [26]) was 1000 µg/mL (≈ 3470 µM) and the zone of inhibition at 250 µg/mL (Klebsiella pneumoniae [27]) was 17 mm. The zone of inhibition at 250 µg/mL (Pseudomonas aeruginosa [28]) was 17 mm, the zone of inhibition at 250 µg/mL (Escherichia coli [29]) was 19 mm and the zone of inhibition at 250 µg/mL (Staphylococcus aureus [30]) was 17 mm. It also gave a zone of inhibition at 250 µg/mL (Streptococcus pyogenes [31]) of 19 mm, a zone of inhibition at 100 µg/mL (Klebsiella pneumoniae [32]) of 15 mm and a zone of inhibition at 100 µg/mL (Pseudomonas aeruginosa [33]) of 16 mm. The zone of inhibition at 100 µg/mL (Escherichia coli [34]) was 18 mm, the zone of inhibition at 100 µg/mL (Staphylococcus aureus [35]) was 16 mm and the zone of inhibition at 100 µg/mL (Streptococcus pyogenes [36]) was 18 mm. The zone of inhibition at 50 µg/mL (Klebsiella pneumoniae [37]) was 14 mm, the zone of inhibition at 50 µg/mL (Pseudomonas aeruginosa [38]) was 12 mm and the zone of inhibition at 50 µg/mL (Escherichia coli [39]) was 15 mm. For the same compound, the zone of inhibition at 50 µg/mL (Staphylococcus aureus [40]) was 12 mm, the zone of inhibition at 50 µg/mL (Streptococcus pyogenes [41]) was 15 mm and the zone of inhibition at 25 µg/mL (Klebsiella pneumoniae [42]) was 12 mm. The zone of inhibition at 250 µg/mL (Trichophyton rubrum [43]) was 25 mm, the zone of inhibition at 250 µg/mL (Aspergillus clavatus [44]) was 25 mm and the zone of inhibition at 250 µg/mL (Candida albicans [45]) was 24 mm.

From ChEMBL document CHEMBL3044736, “Synthesis, characterization, solvatochromic properties, and antimicrobial evaluation of 5-acetyl-2-thioxo-dihydro-pyrimidine-4,6-dione-based chalcones” (2013)
